Legend:
[1] = molecular target: T1, JAK3 enzyme (Homo sapiens, UniProt P52333); assay: JAK Caliper Enzyme Assay at 4 μM ATP; format: biochemical
T1 sequence (P52333 1-1124): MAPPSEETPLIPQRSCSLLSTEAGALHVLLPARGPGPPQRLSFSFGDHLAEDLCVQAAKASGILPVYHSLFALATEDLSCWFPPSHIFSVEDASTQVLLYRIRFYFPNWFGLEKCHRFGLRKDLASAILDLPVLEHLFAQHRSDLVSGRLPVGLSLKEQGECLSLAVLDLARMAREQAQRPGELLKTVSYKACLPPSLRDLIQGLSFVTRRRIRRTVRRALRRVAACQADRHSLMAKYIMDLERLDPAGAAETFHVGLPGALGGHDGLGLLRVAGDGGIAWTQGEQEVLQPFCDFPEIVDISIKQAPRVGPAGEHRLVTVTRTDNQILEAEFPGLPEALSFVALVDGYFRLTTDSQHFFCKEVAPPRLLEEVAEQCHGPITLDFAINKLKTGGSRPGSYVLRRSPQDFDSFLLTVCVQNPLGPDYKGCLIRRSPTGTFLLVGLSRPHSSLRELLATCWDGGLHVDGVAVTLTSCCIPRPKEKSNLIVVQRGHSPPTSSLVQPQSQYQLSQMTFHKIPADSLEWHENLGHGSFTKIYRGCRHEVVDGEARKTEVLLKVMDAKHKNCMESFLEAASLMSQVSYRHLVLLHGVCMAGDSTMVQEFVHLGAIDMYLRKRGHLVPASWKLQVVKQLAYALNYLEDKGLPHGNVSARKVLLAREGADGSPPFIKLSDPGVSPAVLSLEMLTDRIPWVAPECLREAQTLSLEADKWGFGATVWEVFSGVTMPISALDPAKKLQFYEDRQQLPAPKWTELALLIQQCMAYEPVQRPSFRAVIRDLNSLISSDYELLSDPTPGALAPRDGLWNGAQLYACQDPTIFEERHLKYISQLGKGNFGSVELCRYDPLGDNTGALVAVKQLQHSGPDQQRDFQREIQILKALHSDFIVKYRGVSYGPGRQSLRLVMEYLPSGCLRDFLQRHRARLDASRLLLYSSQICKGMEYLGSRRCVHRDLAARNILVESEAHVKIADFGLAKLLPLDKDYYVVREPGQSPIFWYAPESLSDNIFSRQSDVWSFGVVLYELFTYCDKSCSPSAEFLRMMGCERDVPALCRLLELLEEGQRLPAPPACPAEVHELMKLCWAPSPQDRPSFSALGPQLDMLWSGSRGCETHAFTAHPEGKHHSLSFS
Method in brief: (§1)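 Substrate conversion was kept within 20%-30% by adjusting enzyme and incubation for every preparation; peptide phosphorylation was quantified via on-chip mobility shift.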

[2] = molecular target: T1, JAK3 enzyme; assay: JAK Caliper Enzyme Assay at 1 mM ATP; format: biochemical
Method in brief: as §1

[3] = system: IL-15 induced P-STAT5 in human PBMC; assay: PBMC IL-15 Induced P-STAT5; format: cell-based; conditions: human PBMC, IL-15 final 41 ng/mL; read-out: PBMC IL15_pSTAT5_IC50
Method: PBMC IL-15 Induced P-STAT5
Test compounds were serially diluted in DMSO, with further dilution of the compounds in RPMI 1640 medium (Invitrogen #72400) supplemented with 10 mM HEPES, pH 7.4, 1 mM sodium pyruvate, and Penicillin/Streptomycin (by adding 5 μL compound/DMSO in 120 μL Dulbecco's Phosphate-Buffered Saline (D-PBS, 1×), [DMSO]=4%, and mixing the solution by repeated pipetting, 6×). IL-15 was diluted to the concentration at 820 ng/mL in RPMI 1640 medium.
Frozen human PBMC (200-250 million cells/vial) was thawed at 37° C. The cells were transferred to 10 mL warm medium in a 50-mL conical tube, and centrifuged at 1,200 RPM at room temperature for 5 min. The supernatant was aspirated. Cells were suspended in 3 mL warm human plasma and incubated at 37° C. in a tissue culture incubator for 1.5 to 2 h. After adding 47 ml D-PBS (37° C.) to PBMC/FBS suspension, centrifuging at 1,200 RPM at room temperature for 5 min, and aspirating the supernatant, the cells were resuspended in 20 mL warm RPMI medium. Ninety μL of cell suspension were pipetted per well in a 96-well, deep-well, V-bottom plate, and the plate was incubated at 37° C. for 30 min. Five μL of compound were transferred to each well (final 0.2% DMSO), vortex gently and incubate at 37° C. for 15 min; 5 μL 4% DMSO/PBS were added to the control wells. After adding 5 μL 820 ng/mL of human IL-15 (final 41 ng/mL) to each well (5 μL PBS to the control wells), vortexing gently and incubating at 37° C. for 15 min, followed by 0.3 mL 1% paraformaldehyde/PBS (37° C.) to each well, and incubating the plate at room temperature for 15 min, the plates were centrifuged at 1,200 RPM (Beckman GS-6R or Sorvall Legend) at room temperature for 5 min, and the supernatant was aspirated using a 8-channel or 12-channel manifold. After adding 0.8 mL staining buffer per well, the plates were centrifuged at 1,200 RPM (Beckman GS-6R or Sorvall Legend) at room temperature for 5 min, and again the supernatant was aspirated using a 8-channel or 12-channel manifold. The plate was vortexed, and 0.35 mL 90% methanol/10% H2O (−20° C.) was added per well, and the plate incubated on ice for 20 min. After again adding 0.8 mL staining buffer per well, the plates were centrifuged at 1,200 RPM (Beckman GS-6R or Sorvall Legend) at room temperature for 5 min, and again the supernatant was aspirated using a 8-channel or 12-channel manifold, and then 0.8 mL Staining buffer was added per well. After once again adding 0.8 mL staining buffer per well, the plates were centrifuged at 1,200 RPM (Beckman GS-6R or Sorvall Legend) at room temperature for 5 min, and again the supernatant was aspirated using a 8-channel or 12-channel manifold. Then the plate was vortexed, and 250 μL/well of Alexa Fluor® 647 conjugated anti-STAT5 antibody ([…]; […]) was added, and the plate was incubated at 4° C. overnight in the dark. Samples of 250 μL/well were transferred to a 96-well U-bottom plate, and the FACS analysis was performed gating on total lymphocytes. Samples were analyzed using a BD Calibur™ or BD FACSCanto™ flow cytometer equipped with the BD High Throughput Sampler.

| SMILES | IC50 [1] [nM] | IC50 [2] [nM] | IC50 [3] [nM] |
| --- | --- | --- | --- |
| C=CC(=O)N1CCC(Nc2cnc3[nH]cc(C(=O)NCc4nc(C)cc(C(F)(F)F)n4)c3n2)CC1 [Example 171, 2-[(1-acryloylpiperidin-4-yl)amino]-N-{[4-methyl-6-(trifluoromethyl)pyrimidin-2-yl]methyl}-5H-pyrrolo[2,3-b]pyrazine-7-carboxamide] | 0.928 | 55 | 947 |
| C=CC(=O)N1C[C@@H](Nc2ncnc3[nH]ccc23)CC[C@H]1CNC(C)=O (single isomer, unassigned) [Example 90] | 1.04 | 152 | 3220 |
| C=CC(=O)N1CCC(Nc2cnc3[nH]cc(C(=O)NCc4nc5cc(F)ccc5o4)c3n2)CC1 [Example 177, 2-[(1-acryloylpiperidin-4-yl)amino]-N-[(5-fluoro-1,3-benzoxazol-2-yl)methyl]-5H-pyrrolo[2,3-b]pyrazine-7-carboxamide] | 0.626 | 25 | 420 |
| C=CC(=O)N1C[C@H](CC#N)C[C@H](Nc2ncnc3[nH]ccc23)C1 (single isomer, unassigned) [Example 107] | 11.8 | 1240 | 8260 |
| C=CC(=O)N1CCC(C)(Oc2cnc3[nH]cc(C(=O)NCC)c3n2)CC1 [Example 61, 2-[(1-acryloyl-4-methylpiperidin-4-yl)oxy]-N-ethyl-5H-pyrrolo[2,3-b]pyrazine-7-carboxamide] | 3.39 | 564 | 2170 |
| C=CC(=O)N1CCN(c2cnc3[nH]cc(C(=O)NC(CC)(CC)CO)c3n2)CC1(C)C [Example 163, 2-(4-acryloyl-3,3-dimethylpiperazin-1-yl)-N-[3-(hydroxymethyl)pentan-3-yl] 5H-pyrrolo[2,3-b]pyrazine-7-carboxamide] | 1.24 | 160 | 409 |
| C=CC(=O)N1CCC(Nc2cnc3[nH]cc(C(=O)NCCc4nc5ccc(F)c(F)c5o4)c3n2)CC1 [Example 182, 2-[(1-acryloylpiperidin-4-yl)amino]-N-[2-(6,7-difluoro-1,3-benzoxazol-2-yl)ethyl]-5H-pyrrolo[2,3-b]pyrazine-7-carboxamide] | 2.44 | 165 | > 10000 |
| C=CC(=O)N1CCC(Oc2cnc3[nH]cc(C(=O)NCC4CC(F)(F)C4)c3n2)CC1 [Example 197, 2-[(1-acryloylpiperidin-4-yl)oxy]-N-[(3,3-difluorocyclobutyl)methyl]-5H-pyrrolo[2,3-b]pyrazine-7-carboxamide] | 0.788 | 147 | 706 |

More lines, main results first:

| IC50 [1] [nM] | IC50 [2] [nM] | SMILES | IC50 [3] [nM] |
| --- | --- | --- | --- |
| 2.12 | 367 | C=CC(=O)N1CC[C@H](Nc2cnc3[nH]cc(C(=O)NCC)c3n2)C[C@@H]1C (racemic) [Example 349, 2-(((2S,4S)-1-acryloyl-2-methylpiperidin-4-yl)amino)-N-ethyl-5H-pyrrolo[2,3-b]pyrazine-7-carboxamide] | 2930 |
| 1.78 | 223 | C=CC(=O)N1CCN(c2cnc3[nH]cc(C(=O)NCC(F)(F)F)c3n2)C[C@@H]1CC(C)C [Example 311, 2-[(3S)-4-acryloyl-3-(2-methylpropyl)piperazin-1-yl]-N-(2,2,2-trifluoroethyl)-5H-pyrrolo[2,3-b]pyrazine-7-carboxamide] | 586 |
| 2.82 | 370 | C=CC(=O)N1CCC(Oc2cnc3[nH]cc(C(=O)NCC4(O)CCC4)c3n2)CC1 [Example 203, 2-[(1-acryloylpiperidin-4-yl)oxy]-N-[(1-hydroxycyclobutyl)methyl]-5H-pyrrolo[2,3-b]pyrazine-7-carboxamide] | 4460 |
| 0.627 | 105 | C=CC(=O)N1CCC(Oc2cnc3[nH]cc(C(=O)NCCCC#N)c3n2)CC1 [Example 218, 2-[(1-acryloylpiperidin-4-yl)oxy]-N-(3-cyanopropyl)-5H-pyrrolo[2,3-b]pyrazine-7-carboxamide] | 1200 |
| 0.519 | 57 | C=CC(=O)N1CCC(C)(Nc2cnc3[nH]cc(C(=O)NCC(C)(F)F)c3n2)CC1 [Example 296, 2-[(1-acryloyl-4-methylpiperidin-4-yl)amino]-N-(2,2-difluoropropyl)-5H-pyrrolo[2,3-b]pyrazine-7-carboxamide] | 609 |
| 0.922 | 328 | C=CC(=O)N1CCC(Oc2cnc3[nH]cc(C(=O)NC4CC(F)(F)C4)c3n2)CC1 [Example 212, 2-[(1-acryloylpiperidin-4-yl)oxy]-N-(3,3-difluorocyclobutyl)-5H-pyrrolo[2,3-b]pyrazine-7-carboxamide] | 1340 |
| 2.16 | 182 | C=CC(=O)N1CCC(Nc2cnc3[nH]cc(C(=O)NC4CCC4)c3n2)CC1C (racemic) [Example 320, Racemic-2-[(1-acryloyl-2-methylpiperidin-4-yl)amino]-N-cyclobutyl-5H-pyrrolo[2,3-b]pyrazine-7-carboxamide] | 1250 |
| 4.13 | 344 | C=CC(=O)N1CCC(Oc2cnc3[nH]cc(C(=O)NCC4(O)CCCC(F)(F)C4)c3n2)CC1 (racemic) [Example 223, Racemic-2-[(1-acryloylpiperidin-4-yl)oxy]-N-[(3,3-difluoro-1-hydroxycyclohexyl)methyl]-5H-pyrrolo[2,3-b]pyrazine-7-carboxamide] | 3330 |
| 4.05 | 515 | C=CC(=O)N1CCN(c2cnc3[nH]cc(C(=O)NCC(C)(C)C)c3n2)CC1(C)C [Example 285, 2-(4-acryloyl-3,3-dimethylpiperazin-1-yl)-N-(2,2-dimethylpropyl)-5H-pyrrolo[2,3-b]pyrazine-7-carboxamide] | 1790 |

Reference: US10703756B2, “Pyrrolo[2,3-D]pyrimidinyl, pyrrolo[2,3-B]pyrazinyl, pyrrolo[2,3-B]pyridinyl acrylamides and epoxides thereof” (Pfizer Inc., priority 2015, dated 2020)
